Target: T1, mushroom tyrosinase (Agaricus bisporus, UniProt C7FF04)
T1 construct: purchased Sigma-Aldrich
Assay: Anti-mushroom tyrosinase activity (DOPA-chrome method)
Format: biochemical
Settings: not given
Description: The inhibitory activity of the samples against mushroom tyrosinase was assessed using the DOPA-chrome method with some modifications. […] The assay was performed in a 96-well plate, in which the buffer was added to all wells, followed by 10% DMSO (50 μL) in the control and blank control wells. […] Next, 50 μL of tyrosinase solution was added to all wells except for the blank control and blank sample, followed by incubation at room temperature for 10 min. Subsequently, 50 μL of L-Dopa solution was added to all wells and incubated for 10 min at room temperature. Finally, the absorbance was measured at 492 nm using a UV spectrophotometer. […] All experiments were performed in triplicate.

T1 sequence (C7FF04 1-392): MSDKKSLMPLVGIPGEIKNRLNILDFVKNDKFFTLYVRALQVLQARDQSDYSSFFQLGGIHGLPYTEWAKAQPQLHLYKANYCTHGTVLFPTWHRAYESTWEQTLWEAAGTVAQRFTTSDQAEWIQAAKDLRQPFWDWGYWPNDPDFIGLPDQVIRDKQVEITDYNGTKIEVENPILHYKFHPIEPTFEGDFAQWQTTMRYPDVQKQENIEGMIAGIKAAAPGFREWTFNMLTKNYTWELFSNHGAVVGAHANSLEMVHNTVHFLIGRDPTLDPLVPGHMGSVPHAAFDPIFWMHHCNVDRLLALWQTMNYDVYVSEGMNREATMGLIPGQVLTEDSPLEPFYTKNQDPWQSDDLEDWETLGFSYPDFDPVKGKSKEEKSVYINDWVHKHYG

| Structure (SMILES) | IC50 |
| --- | --- |
| Oc1cc(O)cc(/C=C/c2ccc(O)cc2O)c1 [Ore, Oxyresveratrol] | 4.02 ± 0.46 µM |
| Oc1ccc(/C=C/c2cc(O)cc(O)c2)cc1 [Re, 3,4′,5-trihydroxy-trans-stilbene] | 517 ± 7.4 µM |
| Oc1ccc(CCc2cc(O)cc(O)c2)cc1 [Dre, Dihydroresveratrol] | 335 ± 7.98 µM |
| CC(=O)Oc1ccc(/C=C/c2cc(OC(C)=O)cc(OC(C)=O)c2)cc1 [Are, Acetyl-resveratrol] | 396 ± 5.74 µM |
| COc1ccc(/C=C\c2cc(OC)cc(OC)c2)cc1 [Cre, Cis-trismethoxy resveratrol] | 532 ± 3.59 µM |

Test system: not listed separately
Assay: DPPH radical scavenging activity
Settings: 30 min, 517 nm, mean ± SD
Description: The DPPH radical scavenging activity was determined according to the method in [45] with slight modifications. A 20 µL sample was added to a 96-well plate, followed by 0.1 mM DPPH dissolved in absolute ethanol. The mixtures were incubated in the dark at room temperature for 30 min, and their absorbance was measured at 517 nm with 3 replications using a UV spectrophotometer. The radical scavenging activity was calculated as follows:%radical scavenging = [(Acontrol − Asample)/Acontrol] × 100 where Acontrol = absorbance of the control, which contains an equal volume of DPPH and absolute ethanol, and Asample = absorbance of the sample or ascorbic acid standard, which contains an equal volume of DPPH and the sample solution. The percentage inhibition of the test solutions was calculated and plotted against their concentrations, along with the L-ascorbic acid standard, to generate a linear equation. The concentration required for IC50 was determined via interpolation from the linear equation.

| Structure (SMILES) | IC50 |
| --- | --- |
| Oc1cc(O)cc(/C=C/c2ccc(O)cc2O)c1 [Ore, Oxyresveratrol] | 38.1 ± 1.12 µM |
| Oc1ccc(CCc2cc(O)cc(O)c2)cc1 [Dre, Dihydroresveratrol] | > 1500 µM |
| CC(=O)Oc1ccc(/C=C/c2cc(OC(C)=O)cc(OC(C)=O)c2)cc1 [Are, Acetyl-resveratrol] | > 1500 µM |
| COc1ccc(/C=C\c2cc(OC)cc(OC)c2)cc1 [Cre, Cis-trismethoxy resveratrol] | > 1500 µM |

Test system: not listed separately
Assay: ABTS radical scavenging activity
Settings: 7 min at 37 °C, 734 nm, mean ± SD
Description: ABTS radical scavenging activity was measured using the method described by Thaipong et al. (2006), with minor modifications. The ABTS solution was prepared by dissolving 7 mM ABTS and mixing it with potassium persulfate in a 2:1 ratio. The mixture was allowed to react in the dark for 12–16 h. Before use, the ABTS radical cation was diluted with ultrapure water to achieve an initial absorbance of around 0.70 ± 0.02 at 734 nm, as measured using a UV spectrophotometer. Sample solutions at various concentrations were then prepared by mixing 50 μL of each sample with 100 μL of the ABTS solution. The mixture was incubated in the dark for 7 min at 37 °C. After incubation, absorbance was measured at 734 nm. All tests were performed in triplicate, and the percentage of radical scavenging activity was calculated.

| Structure (SMILES) | IC50 |
| --- | --- |
| Oc1cc(O)cc(/C=C/c2ccc(O)cc2O)c1 [Ore, Oxyresveratrol] | 26.2 ± 0.57 µM |
| O=C1O[C@H]([C@@H](O)CO)C(O)=C1O [L-ascorbic acid, reference compound] | 52.41 ± 0.06 µM |

Test system: not listed separately
Assay: Ferric reducing antioxidant power (FRAP)
Settings: 595 nm, FeSO4 calibration, mean ± SD
Description: A FRAP assay was performed based on the method in [46] with slight modifications. The FRAP solution reagent was prepared by combining 0.3 M acetate buffer, 10 mM TPTZ solution in 40 mM HCl, and 20 mM ferric chloride (FeCl3) solution in a 10:1:1 ratio. Next, 20 µL of the sample was added to 280 µL of the FRAP reagent, and the mixture was thoroughly mixed. Absorbance was then measured at 595 nm using a UV spectrophotometer. A calibration curve was constructed with ferrous sulfate (FeSO4), and the results were expressed as the equivalent of FeSO4/g.

| Structure (SMILES) | FRAP reducing power |
| --- | --- |
| Oc1cc(O)cc(/C=C/c2ccc(O)cc2O)c1 [Ore, Oxyresveratrol] | 664.99 ± 42.62 μmol Fe(II)/g |
| Oc1ccc(CCc2cc(O)cc(O)c2)cc1 [Dre, Dihydroresveratrol] | very low reducing power |
| CC(=O)Oc1ccc(/C=C/c2cc(OC(C)=O)cc(OC(C)=O)c2)cc1 [Are, Acetyl-resveratrol] | very low reducing power |
| COc1ccc(/C=C\c2cc(OC)cc(OC)c2)cc1 [Cre, Cis-trismethoxy resveratrol] | very low reducing power |
